Experimental findings from ChEMBL document CHEMBL3039007, “Structure-based identification of OATP1B1/3 inhibitors” (Mol Pharmacol, 2013) are described below.

For data set [1], the target named is T1, Solute carrier organic anion transporter family member 1B3 (Homo sapiens, UniProt Q9NPD5).
T1 sequence (Q9NPD5 whole entry): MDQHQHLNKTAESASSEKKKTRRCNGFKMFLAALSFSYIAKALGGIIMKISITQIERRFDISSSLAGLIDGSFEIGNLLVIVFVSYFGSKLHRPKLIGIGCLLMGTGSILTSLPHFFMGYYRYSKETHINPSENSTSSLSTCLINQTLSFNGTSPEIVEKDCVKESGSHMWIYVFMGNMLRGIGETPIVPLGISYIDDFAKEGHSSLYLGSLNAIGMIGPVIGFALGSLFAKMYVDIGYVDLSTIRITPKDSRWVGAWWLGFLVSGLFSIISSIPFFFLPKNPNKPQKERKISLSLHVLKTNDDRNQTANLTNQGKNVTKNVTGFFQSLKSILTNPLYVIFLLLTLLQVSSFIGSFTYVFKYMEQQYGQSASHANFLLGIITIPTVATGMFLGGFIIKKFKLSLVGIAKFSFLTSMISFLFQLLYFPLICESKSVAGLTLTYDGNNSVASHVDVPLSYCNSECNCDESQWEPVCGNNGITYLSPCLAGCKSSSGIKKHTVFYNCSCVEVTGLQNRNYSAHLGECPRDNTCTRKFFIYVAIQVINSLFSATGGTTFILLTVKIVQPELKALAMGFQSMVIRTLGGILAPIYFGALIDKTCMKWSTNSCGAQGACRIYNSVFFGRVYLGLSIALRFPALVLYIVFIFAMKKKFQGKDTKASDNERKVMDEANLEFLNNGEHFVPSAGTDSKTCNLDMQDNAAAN
The settings on record: chinese hamster, cho, 10 µM.

Data set [2] concerns the target T2, Solute carrier organic anion transporter family member 1B1 (Homo sapiens, UniProt Q9Y6L6).
T2 sequence (Q9Y6L6 whole entry): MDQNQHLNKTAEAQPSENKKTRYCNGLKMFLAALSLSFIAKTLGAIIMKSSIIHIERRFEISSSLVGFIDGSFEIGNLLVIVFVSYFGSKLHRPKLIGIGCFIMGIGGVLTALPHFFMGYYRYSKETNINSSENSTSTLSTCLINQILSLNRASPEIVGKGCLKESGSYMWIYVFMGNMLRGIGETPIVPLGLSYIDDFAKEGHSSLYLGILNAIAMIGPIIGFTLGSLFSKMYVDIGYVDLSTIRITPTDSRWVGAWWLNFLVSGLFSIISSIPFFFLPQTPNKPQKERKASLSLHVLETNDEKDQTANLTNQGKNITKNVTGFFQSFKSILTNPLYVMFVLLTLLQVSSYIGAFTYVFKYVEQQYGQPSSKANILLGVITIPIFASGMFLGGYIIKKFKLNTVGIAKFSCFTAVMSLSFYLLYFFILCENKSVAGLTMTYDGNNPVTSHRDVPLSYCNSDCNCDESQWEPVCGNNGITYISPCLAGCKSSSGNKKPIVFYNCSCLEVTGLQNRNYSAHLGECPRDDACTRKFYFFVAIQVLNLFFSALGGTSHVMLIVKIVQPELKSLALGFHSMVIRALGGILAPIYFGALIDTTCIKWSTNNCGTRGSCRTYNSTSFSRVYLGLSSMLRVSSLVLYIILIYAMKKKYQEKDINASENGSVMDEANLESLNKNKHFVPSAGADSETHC
The settings on record: chinese hamster, cho, 10 µM.

With `O=C(O)[C@]1(O)C[C@@H](O)[C@@H](O)[C@H](O)C1` [QUINIC ACID], the residual activity in data set [1] stood at 98.01%; in data set [2], 95.08%.
Turning to `C=C[C@H]1CN2CC[C@H]1C[C@@H]2[C@@H](O)c1ccnc2ccc(OC)cc12.O=C(O)[C@H](O)[C@@H](O)[C@H](O)[C@H](O)CO` [QUINIDINE GLUCONATE], the residual activity in data set [1] amounted to 122%; in data set [2], 103.2%.
On the same counts, the results for `C=C[C@H]1CN2CC[C@H]1C[C@H]2[C@H](OC(=O)OCC)c1ccnc2ccc(OC)cc12` [QUININE ETHYLCARBONATE] are 64.19% and 58.74%.
On the same counts, the results for `C=C[C@H]1CN2CC[C@H]1C[C@H]2[C@H](O)c1ccnc2ccc(OC)cc12.C=C[C@H]1CN2CC[C@H]1C[C@H]2[C@H](O)c1ccnc2ccc(OC)cc12.O.O.O=S(=O)(O)O` [QUININE SULFATE] are 99.87% and 92.08%.
Regarding `O=C(O)c1cccnc1C(=O)O` [QUINOLINIC ACID], the results for the residual activity in data set [1] and in data set [2] were 104.2% and 103.9%, respectively.
Consider `O=C(O)/C=C\C(=O)O.c1ccc2nc(N3CCNCC3)ccc2c1` [QUIPAZINE MALEATE], for which the figures for the residual activity in data set [1] and in data set [2] were 102.9% and 102.6%, respectively.
The like results for `CNC(C)C(O)c1ccccc1.Cl` (stereo not given) [RACEPHEDRINE HYDROCHLORIDE] were, in that order, 103.1% and 70.72%.
For `CCC(=O)NCC[C@@H]1CCc2ccc3c(c21)CCO3` [RAMELTEON], the residual activity is recorded as 113.4% in data set [1] and 127.6% in data set [2].
In the case of `Cc1c(NC(C)C)c(=O)n(-c2ccccc2)n1C` [RAMIFENAZONE], the residual activity in data set [1] turned out to be 89.79%; in data set [2], 105.5%.
For `COc1ccccc1OCC(O)CN1CCN(CC(=O)Nc2c(C)cccc2C)CC1` (stereo not given) [RANOLAZINE], the residual activity in data set [1] was 83.1%; in data set [2], 70.75%.
Regarding `O=C(NC(Cc1cc(=O)[nH]c2ccccc12)C(=O)O)c1ccc(Cl)cc1` (stereo not given) [REBAMIPIDE], the residual activity in data set [1] is on record as 109.2%; in data set [2], 97.98%.
As for `CC(=O)Oc1cccc(O)c1` [RESORCINOL MONOACETATE], the residual activity in data set [1] is 68.79%; in data set [2], 102.7%.
As to `Oc1cccc(O)c1` [RESORCINOL], the figures for the residual activity in data set [1] and in data set [2] were 104.2% and 89.71%, respectively.
Consider `Oc1ccc(/C=C/c2cc(O)cc(O)c2)cc1` [RESVERATROL], for which the residual activity was found to be 116.7% in data set [1] and 157.6% in data set [2].
The like results for `CC1=C(/C=C/C(C)=C/C=C/C(C)=C/CO)C(C)(C)CCC1` [RETINOL] were, in that order, 31.96% and 18.99%.
Turning to `COc1ccc(-c2coc3c(O)c(OC)ccc3c2=O)cc1` [RETUSIN 7-METHYL ETHER], the residual activity in data set [1] came out at 107.3%; in data set [2], 126.8%.
As for `C=C(C)/C=C1/C=CC(=O)C(C)=C1` [RETUSOQUINONE], the residual activity in data set [1] is listed as 92.24%; in data set [2], 96.97%.
On the same counts, the results for `COc1cc(O)c2c(=O)c(O)c(-c3ccc(O)c(O)c3)oc2c1` [RHAMNETIN] are 99.02% and 90.81%.
`COc1ccc(/C=C/c2cc(O)cc(O[C@@H]3O[C@H](CO)[C@@H](O)[C@H](O)[C@H]3O)c2)cc1O` [RHAPONTIN]: the residual activity in data set [1] was 100.6%; in data set [2] it was 166.2%.
The like results for `CNc1ccccc1C(=O)N1CCc2c([nH]c3ccccc23)C1=O` [RHETSININE] were, in that order, 98.18% and 102%.
Turning to `COC1=C(O)C(=O)c2c(cc3oc(C(C)=O)c(O)c3c2O)C1=O` [RHODOCLADONIC ACID], the residual activity is 96.54% in data set [1] and 93.89% in data set [2].
Regarding `CCC(C)C(=O)c1c(O)c(C)c2oc3c(C)c(O)c(C(=O)C(C)CC)c(O)c3c2c1O` (stereo not given) [RHODOMYRTOXIN B], the figures for the residual activity in data set [1] and in data set [2] were 37.47% and 8.078%, respectively.
Regarding `Cc1c(O)c(C(=O)CC(C)C)c2oc3c(C(=O)CC(C)C)c(O)c(C)c(O)c3c2c1O` [RHODOMYRTOXIN], the residual activity came to 66.23% in data set [1] and 31.12% in data set [2].
The like results for `C[C@@H]1O[C@@H](O[C@H]2[C@H](Oc3cc(O)c4c(=O)cc(-c5ccc(O)cc5)oc4c3)O[C@H](CO)[C@@H](O)[C@@H]2O)[C@H](O)[C@H](O)[C@H]1O` [RHOIFOLIN] were, in that order, 203.1% and 101.7%.
`NC(=O)c1ncn([C@@H]2O[C@H](CO)[C@@H](O)[C@H]2O)n1` [RIBAVIRIN]: the residual activity in data set [1] amounted to 87.39%; in data set [2], 112.3%.
The like results for `OC[C@@H](O)[C@@H](O)[C@@H](O)CO` [RIBITOL] were, in that order, 94.42% and 81.13%.
As to `CO[C@H]1/C=C/O[C@@]2(C)Oc3c(C)c(O)c4c(O)c(c(/C=N/N5CCN(C)CC5)c(O)c4c3C2=O)NC(=O)/C(C)=C\C=C\[C@H](C)[C@H](O)[C@@H](C)[C@@H](O)[C@@H](C)[C@H](OC(C)=O)[C@@H]1C` [RIFAMPIN], the residual activity was found to be 22.01% in data set [1] and 33.63% in data set [2].
In the case of `CO[C@H]1/C=C/O[C@@]2(C)Oc3c(C)c(O)c4c(O)c(c5c(nc6cc(C)ccn65)c4c3C2=O)NC(=O)/C(C)=C\C=C\[C@H](C)[C@H](O)[C@@H](C)[C@@H](O)[C@@H](C)[C@H](OC(C)=O)[C@@H]1C` [RIFAXIMIN], the residual activity amounted to 81.07% in data set [1] and 63.34% in data set [2].
`Nc1nc2ccc(OC(F)(F)F)cc2s1` [RILUZOLE]: the values for the residual activity in data set [1] and in data set [2] were 124.8% and 95.81%, respectively.
As to `Cc1nc2sccn2c(=O)c1CCN1CCC(=C(c2ccc(F)cc2)c2ccc(F)cc2)CC1` [RITANSERIN], the residual activity is given as 101.7% in data set [1] and 96.72% in data set [2].
Take `CC(NCCc1ccc(O)cc1)C(O)c1ccc(O)cc1.Cl` (stereo not given) [RITODRINE HYDROCHLORIDE]: the residual activity in data set [1] was 112.7%; in data set [2] it was 125.6%.
Turning to `COc1ccc(-c2c(OC)c3c(OC)c4c(cc3oc2=O)OC(C)(C)C=C4)cc1` [ROBUSTIC ACID METHYL ETHER], the values for the residual activity in data set [1] and in data set [2] were 140.2% and 184.1%, respectively.
The like results for `COc1ccc(-c2c(O)c3c(OC)c4c(cc3oc2=O)OC(C)(C)C=C4)cc1` [ROBUSTIC ACID] were, in that order, 74.37% and 96.44%.
`CC1(C)C=Cc2c(cc3occ(-c4ccc5c(c4)OCO5)c(=O)c3c2O)O1` [ROBUSTONE]: the figures for the residual activity in data set [1] and in data set [2] were 96.96% and 102.3%, respectively.
The like results for `CS(=O)(=O)c1ccc(C2=C(c3ccccc3)C(=O)OC2)cc1` [ROFECOXIB] were, in that order, 84.03% and 134.4%.
Take `Cn1c([N+](=O)[O-])cnc1COC(N)=O` [RONIDAZOLE]: the residual activity in data set [1] came to 88.05%; in data set [2], 103.6%.
On the same counts, the results for `O=C(/C=C/c1ccc(O)c(O)c1)O[C@H](Cc1ccc(O)c(O)c1)C(=O)O` [ROSMARINIC ACID] are 102.5% and 103.9%.
On the same counts, the results for `C=C(C)[C@H]1Cc2c(ccc3c2O[C@@H]2COc4cc(OC)c(OC)cc4[C@@H]2C3=O)O1` [ROTENONE] are 43.86% and 23.22%.
On the same counts, the results for `COc1cc2c(cc1OC)[C@@H]1C(=O)c3ccc(OC)c(CC=C(C)C)c3O[C@@H]1CO2` [ROTENONIC ACID, METHYL ETHER] are 108.1% and 77.03%.
Consider `COc1cc2c(cc1OC)[C@@H]1C(=O)c3ccc(O)c(CC=C(C)C)c3O[C@@H]1CO2` [ROTENONIC ACID], for which the residual activity in data set [1] came out at 99.21%; in data set [2], 53.2%.
